# Data published in patent US9809589B2, “Crystal form of compound used as mineralocorticoid receptor antagonist and preparation method therefor” (KBP BIOSCIENCES CO., LTD., priority 2012, dated 2017).
# “Also recorded” adds a separate entry of the source.
# Legend:
# [1] = Assay 1: stability (influencing factor tests) for Crystal Form I; HPLC content; assay type: physicochemical
# Experimental: Assay 1: Stability for Crystal Form I of the Present Compound
# Crystal Form I of the compound represented by formula (1): Crystal Form I was prepared according to Example 2.
# (1) Crystal Form I of the compound represented by formula (1) was laid on a dry and clean watch glass, and kept at 60° C. for 10 days. Samples were taken respectively on Day 5 and Day 10. The contents of the relevant substance and the compound represented by formula (1) in the sample were measured, and compared with the contents of those in the sample taken on Day 0;
# (2) Crystal Form I of the compound represented by formula (1) was packaged and sealed with a low-density polyethylene bag for pharmaceutical use in the inner layer and with a polyester/aluminum/polyethylene composite film for pharmaceutical package in the outer layer, and kept at 60° C. for 10 days. Samples were taken respectively on Day 5 and Day 10. The contents of the relevant substance and the compound represented by formula (1) in the sample were measured, and compared with the contents of those in the sample taken on Day 0.
# High humidity test: Crystal Form I of the compound represented by formula (1) was laid on a dry and clean watch glass, and kept at 25° C. under a relative humidity of 90%±5% for 10 days. Samples were taken respectively on Day 5 and Day 10. The contents of the relevant substance and the compound represented by formula (1) in the sample were measured, and compared with the contents of those in the sample taken on Day 0.
# Photostability test: Crystal Form I of the compound represented by formula (1) was laid on a dry and clean watch glass, and kept at an illuminance of 4500 L×±500 L× in an illumination box for 10 days. Samples were taken respectively on Day 5 and Day 10. The contents of the relevant substance and the compound represented by formula (1) in the sample were measured, and compared with the contents of those in the sample taken on Day 0.
# (§1) The content of the compound represented by formula (1) was measured by using an external standard method in accordance with the High Performance Liquid Chromatography in Chinese Pharmacopoeia, Appendix V D, Edition 2010.
# (§2) The content of the relevant substance was measured by using an area normalization method in accordance with the High Performance Liquid Chromatography in Chinese Pharmacopoeia, Appendix V D, Edition 2010.
# [2] = test system: high salt induced Dahl salt sensitive (Dahl/SS) rats; assay: Assay 3: depressurization effect (SBP, tail-cuff) in hypertension and kidney injury Dahl/ss rat model; assay type: in vivo; settings: for SBP Before Administration (mean ± SD): baseline, solid dispersion with PVPK30 1:8, oral gavage twice a day; for SBP After Administration (on 41th day) (mean ± SD): oral gavage twice a day, 4% NaCl chow, solid dispersion with PVPK30 1:8
# Experimental: (§3) Organ protection and depressurization effect of Crystal Form I of the present invention on the high salt induced Dahl salt sensitive (Dahl/SS) rats
# (§4) The solid dispersion of Crystal Form I of the present invention (Crystal Form I of the present invention: PVPK30=1:8 (w/w)): the solid dispersion of Crystal Form I of the present invention was formulated with a suitable amount of sterile water for injection into suspensions having concentrations of 0.03, 0.10, 0.30, and 1.00 mg/mL. The suspension was prepared before use every day.
# (§5) Experiment animals: male Dahl/ss rats of SPF (specific pathogen free)-grade, 8-9 weeks, purchased via Vital River Laboratories from HARLAN LABORATORIES, INC. After one week normal quarantine, rats in good sign and condition were used in the experiment.
# (§6) Dahl/ss rats were randomly divided into six groups according to the blood pressure measurement before administration:
# (§7) The in vivo pharmacodynamic activity of Crystal Form I of the present invention was evaluated by the hypertension and kidney injury Dahl/ss rat's model.
# (§8) One week before the experiment, the blood pressures of rats were monitored twice by the tail-cuff blood pressure measurement so that the rats could accommodate the blood pressure monitoring operation. The blood pressures of rats were monitored once before starting the experiment and used as the basic blood pressures before administration. The rats were randomly divided into groups according to the measured blood pressures before administration. The model was established by feeding the rats with a high salt chow (AIN-93G experiment animal feed containing 4% NaCl) for 42 days, in which the rats were freely accessible to food and water. And rats in control group were fed with a low-sodium chow.
# (§9) The rats in the treatment groups with Crystal Form I of the present invention were respectively administrated with Crystal Form I of the present invention in a dosage of 0.3, 1, 3, and 10 mg/kg/day. Rats in treatment groups were dosed orally via gavage twice a day by 5 mL/kg. The rats in the model group and in the normal control were administrated with the same volume of sterile water for injection.
# Blood pressure (systolic blood pressure, abbreviated as SBP) measurement: The blood pressure was measured once each week for six weeks. The blood pressure changes were analyzed for each group.
# [3] = test system: high salt induced Dahl salt sensitive (Dahl/SS) rats; assay: Assay 3: pathological examinations for kidney and heart (organ protection) in Dahl/ss rat model; assay type: in vivo; settings: for left ventricular wall thickness (mean ± SD) / Kidney injury scores (Mean ± SD): 42 days high salt chow; for Kidney injury scores (Mean ± SD): HE stain
# Experimental: as §3, §4, §5, §6, §7, §8, §9
# The pathological examinations for kidney and heart: After the experiment, the rats were killed in a painless manner. The heart and the bilateral kidneys were collected for histopathology analysis. Kidney injury was scored and semi-quantitatively analyzed based on hematoxylin-eosin (HE) stain. The heart injury was analyzed by the measurement of left ventricular wall thickness.
# [4] = Assay 2: stability (influencing factor tests) for Crystal Form II; HPLC content; assay type: physicochemical
# Experimental: Stability for Crystal Form II of the present compound
# Crystal Form II of the compound represented by formula (1): Crystal Form II was prepared according to Example 4.
# (1) Crystal Form II of the compound represented by formula (1) was laid on a dry and clean watch glass, and kept at 60° C. for 10 days. Sample was taken on Day 10. The contents of the relevant substance and the compound represented by formula (1) in the sample were measured, and compared with the contents of those in the sample taken on Day 0;
# (2) Crystal Form II of the compound represented by formula (1) was packaged and sealed with a low-density polyethylene bag for pharmaceutical use in the inner layer and with a polyester/aluminum/polyethylene composite film for pharmaceutical package in the outer layer, and kept at 60° C. for 10 days. Sample was taken on Day 10. The contents of the relevant substance and the compound represented by formula (1) in the sample were measured, and compared with the contents of those in the sample taken on Day 0.
# High humidity test: Crystal Form II of the compound represented by formula (1) was laid on a dry and clean watch glass, and kept at 25° C. under a relative humidity of 90%±5% for 10 days. Sample was taken respectively on Day 10. The contents of the relevant substance and the compound represented by formula (1) in the sample were measured, and compared with the contents of those in the sample taken on Day 0.
# Photostability test: Crystal Form II of the compound represented by formula (1) was laid on a dry and clean watch glass, and kept at an illuminance of 5000 L×±500 L× in an illumination box for 10 days. Sample was taken on Day 10. The contents of the relevant substance and the compound represented by formula (1) in the sample were measured, and compared with the contents of those in the sample taken on Day 0.
# as §1, §2
# [5] = 60° C.-(1), open watch glass, Day 5
# [6] = 60° C.-(1), open watch glass, Day 10
# [7] = 60° C.-(2), packaged and sealed, Day 5
# [8] = 60° C.-(2), packaged and sealed, Day 10
# [9] = high temperature, high humidity, illumination
smiles,measurement,setting,value
"N#Cc1ccc(N2N=C3c4ccc(C(=O)N5CCC(O)CC5)nc4CC[C@@H]3[C@@H]2C2CCCC2)cc1Cl [Crystal Form I, 2-chloro-4-[(3S,3aR)-3-cyclopentyl-7-(4-hydroxypiperidin-1-carbonyl)-3,3a,4,5-tetrahydro-2H-pyrazolo[3,4-f]quinolin-2-yl]benzonitrile]",Stability compared with the amorphous form,[1],superior to the amorphous form in the stability
same,Content of the compound represented by formula (1),[1]; [5],98.9%
same,Content of the relevant substance,[1]; [5],0.82%
same,Content of the compound represented by formula (1),[1]; [6],98.1%
same,Content of the relevant substance,[1]; [6],0.97%
same,Content of the compound represented by formula (1),[1]; [7],99.7%
same,Content of the relevant substance,[1]; [7],0.58%
same,Content of the compound represented by formula (1),[1]; [8],99.0%
same,Content of the relevant substance,[1]; [8],0.60%
same,Content of the compound represented by formula (1),"[1]; 4500 Lx ± 500 Lx, Day 5",98.1%
same,Content of the relevant substance,"[1]; 4500 Lx ± 500 Lx, Day 5",1.2%
same,Content of the compound represented by formula (1),"[1]; 4500 Lx ± 500 Lx, Day 10",97.0%
same,Content of the relevant substance,"[1]; 4500 Lx ± 500 Lx, Day 10",2.0%
same,Content of the compound represented by formula (1),[1]; Day 0,99.5%
same,Content of the relevant substance,[1]; Day 0,0.54%
same,Content of the compound represented by formula (1),"[1]; RH90% ± 5%, 25° C., Day 5",99.1%
same,Content of the relevant substance,"[1]; RH90% ± 5%, 25° C., Day 5",0.56%
same,Content of the compound represented by formula (1),"[1]; RH90% ± 5%, 25° C., Day 10",99.0%
same,Content of the relevant substance,"[1]; RH90% ± 5%, 25° C., Day 10",0.56%
same,Change of contents of the relevant substance and the compound represented by formula (1),[1]; [9],substantially did not change
same,SBP Before Administration (mean ± SD),[2]; 0.3 mg/kg/day group,140.8 ± 9.6 mmHg
same,SBP After Administration (on 41th day) (mean ± SD),[2]; 0.3 mg/kg/day,166.5 ± 10.2 mmHg
same,SBP Before Administration (mean ± SD),[2]; 1 mg/kg/day group,140.9 ± 9.5 mmHg
same,SBP After Administration (on 41th day) (mean ± SD),[2]; 1 mg/kg/day,148.7 ± 9.6 mmHg
same,SBP Before Administration (mean ± SD),[2]; 3 mg/kg/day group,141.0 ± 9.4 mmHg
same,SBP After Administration (on 41th day) (mean ± SD),[2]; 3 mg/kg/day,141.6 ± 8.0 mmHg
same,SBP Before Administration (mean ± SD),[2]; 10 mg/kg/day group,141.2 ± 9.2 mmHg
same,SBP After Administration (on 41th day) (mean ± SD),[2]; 10 mg/kg/day,141.2 ± 9.6 mmHg
same,Depressurization effect,"[2]; 0.3-10 mg/kg/day oral, high salt Dahl/ss rats, listed as Crystal Form I of the present invention",significant depressurization effect; also recorded: remarkable depressurization effect
same,left ventricular wall thickness (mean ± SD),[3]; 0.3 mg/kg/day oral,0.392 ± 0.024 cm
same,Kidney injury scores (Mean ± SD),[3]; 0.3 mg/kg/day oral,2.02 ± 0.268
same,left ventricular wall thickness (mean ± SD),[3]; 1 mg/kg/day oral,0.383 ± 0.017 cm
same,Kidney injury scores (Mean ± SD),[3]; 1 mg/kg/day oral,1.25 ± 0.428
same,left ventricular wall thickness (mean ± SD),[3]; 3 mg/kg/day oral,0.381 ± 0.026 cm
same,Kidney injury scores (Mean ± SD),[3]; 3 mg/kg/day oral,1.84 ± 0.596
same,left ventricular wall thickness (mean ± SD),[3]; 10 mg/kg/day oral,0.383 ± 0.019 cm
same,Kidney injury scores (Mean ± SD),[3]; 10 mg/kg/day oral,1.71 ± 0.719
same,Heart protection (left ventricular wall thickness),[3]; compared with the model group,significantly decreased the left ventricular wall thickness
same,Kidney protection (kidney injury score),"[3]; treatment groups vs model group, listed as Crystal Form I of the present invention",remarkable prevention from the increase in the kidney injury score; also recorded: kidney injury protection
"N#Cc1ccc(N2N=C3c4ccc(C(=O)N5CCC(O)CC5)nc4CC[C@@H]3[C@@H]2C2CCCC2)cc1Cl [Crystal Form II, 2-chloro-4-[(3S,3aR)-3-cyclopentyl-7-(4-hydroxypiperidin-1-carbonyl)-3,3a,4,5-tetrahydro-2H-pyrazolo[3,4-f]quinolin-2-yl]benzonitrile]",Stability compared with the amorphous form,[4],superior to the amorphous form in the stability
same,Content of the compound represented by formula (1),[4]; [6],96.2%
same,Content of the relevant substance,[4]; [6],2.8%
same,Content of the compound represented by formula (1),[4]; [8],97.1%
same,Content of the relevant substance,[4]; [8],2.7%
same,Content of the compound represented by formula (1),"[4]; 5000 Lx ± 500 Lx, Day 10",95.5%
same,Content of the relevant substance,"[4]; 5000 Lx ± 500 Lx, Day 10",2.8%
same,Content of the compound represented by formula (1),[4]; Day 0,96.2%
same,Content of the relevant substance,[4]; Day 0,2.6%
same,Content of the compound represented by formula (1),"[4]; RH90% ± 5%, 25° C., Day 10",96.9%
same,Content of the relevant substance,"[4]; RH90% ± 5%, 25° C., Day 10",2.6%
same,Change of contents of the relevant substance and the compound represented by formula (1),[4]; [9],substantially did not change
